Laboratory results reported in patent US12060347B2 (BRISTOL-MYERS SQUIBB COMPANY, priority 2016, dated 2024).
pIC50: −log10 of the molar value.

target: T1, human PAR4 (Homo sapiens, UniProt Q96RI0); assay: PAR4 FLIPR assay: antagonism of agonist-peptide-induced calcium mobilization in PAR4-expressing HEK293 cells; assay type: cell-based; details: H-Ala-Phe(4-F)-[…]NH2-induced intracellular calcium mobilization, 11-point curves
T1 construct: expressed in transfected cells; host or cells: HEK293 PAR4 Clone 1.2A (BMS Arctic ID 383940)
T1 sequence (Q96RI0 18-385): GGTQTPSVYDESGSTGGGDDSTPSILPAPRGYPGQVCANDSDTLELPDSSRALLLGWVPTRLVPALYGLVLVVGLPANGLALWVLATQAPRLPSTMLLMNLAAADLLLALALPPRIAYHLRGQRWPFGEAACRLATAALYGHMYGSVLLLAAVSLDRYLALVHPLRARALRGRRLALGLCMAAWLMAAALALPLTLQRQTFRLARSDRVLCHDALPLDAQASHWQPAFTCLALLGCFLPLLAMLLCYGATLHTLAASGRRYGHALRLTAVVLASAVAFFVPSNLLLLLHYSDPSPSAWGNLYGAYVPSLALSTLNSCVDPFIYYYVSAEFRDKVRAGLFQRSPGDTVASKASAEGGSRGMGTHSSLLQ

SMILES | pIC50
COc1cnc2c(-c3nc4c(Cl)c(F)c(OCCO)cc4s3)cc(C)cc2n1 [Example 318, 2-((4-chloro-5-fluoro-2-(2-methoxy-7-methylquinoxalin-5-yl)benzo[d]thiazol-6-yl)oxy)ethanol] | 8.11
COCc1cnc2c(-c3nc4c(C)c(C)c(OCC(C)(C)O)cc4s3)cc(C)cc2n1 [Example 319, 1-((2-(2-(methoxymethyl)-7-methylquinoxalin-5-yl)-4,5-dimethylbenzo[d]thiazol-6-yl)oxy)-2-methylpropan-2-ol] | 8.14
COCc1cnc2c(-c3nc4c(C)c(C)c(OCCOC(=O)OC)cc4s3)cc(C)cc2n1 [Example 320, 2-((2-(2-(methoxymethyl)-7-methylquinoxalin-5-yl)-4,5-dimethylbenzo[d]thiazol-6-yl)oxy)ethyl methyl carbonate] | 8.47
COc1cnc2c(-c3nc4c(Cl)c(F)c(OCC(=O)N5CCOCC5)cc4s3)cc(C)cc2n1 [Example 324, 2-((4-chloro-5-fluoro-2-(2-methoxy-7-methylquinoxalin-5-yl)benzo[d]thiazol-6-yl)oxy)-1-morpholinoethanone] | 7.38
[2H]C([2H])(O)c1c(C)c(OC)cc2sc(-c3cc(C)cc4nc(COC)cnc34)nc12 [Example 325] | 9.15
COCc1cnc2c(-c3nc4c(C(C)O)c(C)c(OC)cc4s3)cc(C)cc2n1 (stereo not shown) [Example 326, 1-(6-methoxy-2-(2-(methoxymethyl)-7-methylquinoxalin-5-yl)-5-methylbenzo[d]thiazol-4-yl)ethanol] | 8.96
COc1cnc2c(-c3nc4c(Cl)c(F)c(OCCNS(=O)(=O)c5ccccc5)cc4s3)cc(C)cc2n1 [Example 330, N-(2-((4-chloro-5-fluoro-2-(2-methoxy-7-methylquinoxalin-5-yl)benzo[d]thiazol-6-yl)oxy)ethyl)benzenesulfonamide] | 7.24
COc1ccc(NC(=O)OCCOc2cc3sc(-c4cc(C)cc5nc(OC)cnc45)nc3c(Cl)c2F)cn1 [Example 332, 2((4-chloro-5-fluoro-2-(2-methoxy-7-methylquinoxalin-5-yl)benzo[d]thiazol-6-yl)oxy)ethyl (6-methoxypyridin-3-yl)carbamate] | 8.62
COc1cnc2c(-c3nc4c(Cl)c(F)c(OCCOC(=O)NCC(F)(F)F)cc4s3)cc(C)cc2n1 [Example 334, 2((4-chloro-5-fluoro-2-(2-methoxy-7-methylquinoxalin-5-yl)benzo[d]thiazol-6-yl)oxy)ethyl (2,2,2-trifluoroethyl)carbamate] | 7.54
COc1cnc2c(-c3nc4c(Cl)c(F)c(OCCOC(=O)Nc5ccncc5)cc4s3)cc(C)cc2n1 [Example 335, 2((4-chloro-5-fluoro-2-(2-methoxy-7-methylquinoxalin-5-yl)benzo[d]thiazol-6-yl)oxy)ethyl pyridin-4-ylcarbamate] | 8.60
COc1cnc2c(-c3nc4c(Cl)c(F)c(OCCOC(=O)Nc5cncc(F)c5)cc4s3)cc(C)cc2n1 [Example 337, 2((4-chloro-5-fluoro-2-(2-methoxy-7-methylquinoxalin-5-yl)benzo[d]thiazol-6-yl)oxy)ethyl (5-fluoropyridin-3-yl)carbamate] | 9.15
COc1cnc2c(-c3nc4c(Cl)c(F)c(OCCOC(=O)Nc5ccc(-n6cnc(C)n6)nc5)cc4s3)cc(C)cc2n1 [Example 338, 2((4-chloro-5-fluoro-2-(2-methoxy-7-methylquinoxalin-5-yl)benzo[d]thiazol-6-yl)oxy)ethyl (6-(3-methyl-1H-1,2,4-triazol-1-yl)pyridin-3-yl)carbamate] | 8.70
COc1cnc2c(-c3nc4cc(F)c(OCCOC(=O)Nc5cccnc5)cc4s3)cc(C)cc2n1 [Example 339, 2-((5-fluoro-2-(2-methoxy-7-methylquinoxalin-5-yl)benzo[d]thiazol-6-yl)oxy)ethyl pyridin-3-ylcarbamate] | 8.80
COc1cnc2c(-c3nc4cc(F)c(OCCOC(=O)Nc5ccc(F)nc5)cc4s3)cc(C)cc2n1 [Example 340, 2-((5-fluoro-2-(2-methoxy-7-methylquinoxalin-5-yl)benzo[d]thiazol-6-yl)oxy)ethyl (6-fluoropyridin-3-yl)carbamate] | 8.82
COc1ccc(NC(=O)OCCOc2cc3sc(-c4cc(C)cc5nc(OC)cnc45)nc3cc2F)cn1 [Example 341, 2-((5-fluoro-2-(2-methoxy-7-methylquinoxalin-5-yl)benzo[d]thiazol-6-yl)oxy) ethyl (6-methoxypyridin-3-yl)carbamate] | 7.82
COc1cnc2c(-c3nc4cc(F)c(OCCOC(=O)Nc5ccncc5)cc4s3)cc(C)cc2n1 [Example 342, 2-((5-fluoro-2-(2-methoxy-7-methylquinoxalin-5-yl)benzo[d]thiazol-6-yl)oxy)ethyl pyridin-4-ylcarbamate] | 7.96
COc1cnc2c(-c3nc4cc(F)c(O[C@H](C)COC(=O)Nc5cccnc5)cc4s3)cc(C)cc2n1 [Example 344, (R)-2-((5-fluoro-2-(2-methoxy-7-methylquinoxalin-5-yl)benzo[d]thiazol-6-yl)oxy)propyl pyridin-3-ylcarbamate] | 7.96
COc1cnc2c(-c3nc4cc(F)c(OC[C@H](C)OC(=O)Nc5cccnc5)cc4s3)cc(C)cc2n1 [Example 346, (S)-1-((5-fluoro-2-(2-methoxy-7-methylquinoxalin-5-yl)benzo[d]thiazol-6-yl)oxy)propan-2-ylpyridin-3-ylcarbamate] | 8.43
COc1cnc2c(-c3nc4cc(F)c(OC[C@@H](C)OC(=O)Nc5cccnc5)cc4s3)cc(C)cc2n1 [Example 347, (R)-1-((5-fluoro-2-(2-methoxy-7-methylquinoxalin-5-yl)benzo[d]thiazol-6-yl)oxy)propan-2-yl pyridin-3-ylcarbamate] | 9.10
COc1cnc2c(-c3nc4cc(F)c(OC[C@@H](C)OC(=O)Nc5ccc(F)nc5)cc4s3)cc(C)cc2n1 [Example 348, (R)-1-((5-fluoro-2-(2-methoxy-7-methylquinoxalin-5-yl)benzo[d]thiazol-6-yl)oxy)propan-2-yl (6-fluoropyridin-3-yl)carbamate] | 8.36
COc1cnc2c(-c3nc4cc(F)c(OC[C@@H](C)OC(=O)Nc5ccc6[nH]c(=O)oc6c5)cc4s3)cc(C)cc2n1 [Example 350, (R)-1-((5-fluoro-2-(2-methoxy-7-methylquinoxalin-5-yl)benzo[d]thiazol-6-yl)oxy)propan-2-yl (2-oxo-2,3-dihydrobenzo[d]oxazol-6-yl)carbamate] | 8.55

Further compounds by rising pIC50, results first:

pIC50 | SMILES
6.41 | COc1cnc2c(-c3nc4cc(F)c(OC[C@@H](C)OC(=O)NCCC(N)=O)cc4s3)cc(C)cc2n1 [Example 352, (R)-1-((5-fluoro-2-(2-methoxy-7-methylquinoxalin-5-yl)benzo[d]thiazol-6-yl)oxy)propan-2-yl (3-amino-3-oxopropyl) carbamate]
8.04 | COc1cnc2c(-c3nc4c(Cl)c(F)c(OCCOC(=O)Nc5cccnc5)cc4s3)cc(C)cc2n1 [Example 331, 2-((4-chloro-5-fluoro-2-(2-methoxy-7-methylquinoxalin-5-yl)benzo[d]thiazol-6-yl)oxy)ethyl pyridin-3-ylcarbamate]
8.26 | COc1cnc2c(-c3nc4c(Cl)c(F)c(OCCOC(=O)Nc5ccnc(C)c5)cc4s3)cc(C)cc2n1 [Example 336, 2((4-chloro-5-fluoro-2-(2-methoxy-7-methylquinoxalin-5-yl)benzo[d]thiazol-6-yl)oxy)ethyl (2-methylpyridin-4-yl)carbamate]
8.28 | COCc1cnc2c(-c3nc4c(Cl)c(C)c(OCCO)cc4s3)cc(C)cc2n1 [Example 327, 2-((4-chloro-2-(2-(methoxymethyl)-7-methylquinoxalin-5-yl)-5-methylbenzo[d]thiazol-6-yl)oxy)ethanol]
8.57 | COc1cnc2c(-c3nc4cc(F)c(OC[C@@H](C)OC(=O)Nc5ccncc5)cc4s3)cc(C)cc2n1 [Example 349, (R)-1-((5-fluoro-2-(2-methoxy-7-methylquinoxalin-5-yl)benzo[d]thiazol-6-yl)oxy)propan-2-yl pyridin-4-ylcarbamate]
8.57 | COc1cnc2c(-c3nc4cc(F)c(OC[C@@H](C)OC(=O)Nc5ccc(C#N)nc5)cc4s3)cc(C)cc2n1 [Example 351, (R)-1-((5-fluoro-2-(2-methoxy-7-methylquinoxalin-5-yl)benzo[d]thiazol-6-yl)oxy) propan-2-yl (6-cyanopyridin-3-yl)carbamate]
8.77 | COc1cnc2c(-c3nc4c(Cl)c(F)c(OCCOC(=O)Nc5ccc6[nH]c(=O)oc6c5)cc4s3)cc(C)cc2n1 [Example 333, 2((4-chloro-5-fluoro-2-(2-methoxy-7-methylquinoxalin-5-yl)benzo[d]thiazol-6-yl)oxy)ethyl (2-oxo-2,3-dihydrobenzo[d]oxazol-6-yl)carbamate]
8.96 | COCc1cnc2c(-c3nc4cc(F)c(OC(C)C)cc4s3)cc(C)cc2n1 [Example 329, 5-fluoro-6-isopropoxy-2-(2-(methoxymethyl)-7-methylquinoxalin-5-yl)benzo[d]thiazole]
9.15 | COc1cnc2c(-c3nc4cc(F)c(OCCOC(=O)Nc5ccc6[nH]c(=O)oc6c5)cc4s3)cc(C)cc2n1 [Example 343, 2-((5-fluoro-2-(2-methoxy-7-methylquinoxalin-5-yl)benzo[d]thiazol-6-yl)oxy)ethyl (2-oxo-2,3-dihydrobenzo[d]oxazol-6-yl)carbamate]
9.22 | COc1cnc2c(-c3nc4cc(F)c(O[C@@H](C)COC(=O)Nc5cccnc5)cc4s3)cc(C)cc2n1 [Example 345, (S)-2-((5-fluoro-2-(2-methoxy-7-methylquinoxalin-5-yl)benzo[d]thiazol-6-yl)oxy)propyl pyridin-3-ylcarbamate]
